This assay concerns the target Peptidyl-prolyl cis-trans isomerase FKBP1A (Homo sapiens, UniProt P62942). Kind of assay: Inhibition of FKBP12 rotamase activity.

Sequence of Peptidyl-prolyl cis-trans isomerase FKBP1A (P62942 whole entry): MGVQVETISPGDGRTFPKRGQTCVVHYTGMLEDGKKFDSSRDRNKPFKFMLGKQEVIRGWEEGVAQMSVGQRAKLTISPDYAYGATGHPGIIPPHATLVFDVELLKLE

In general, Ki refers to the equilibrium dissociation constant of an inhibitor or competing ligand from its target. A lower Ki goes with a stronger hold on the target. Take `COc1cc2c(c(OC)c1)C1C3CCCC(C(=O)N1CC2)N3S(=O)(=O)c1ccccc1` (centres undefined): the Ki worked out at 0.244 µM.
With `CCc1ccc(S(=O)(=O)N2C3CCCC2C2c4c(cc(OC)cc4OC)CCN2C3=O)cc1` (centres undefined) the figure was 0.266 µM; with `CCN(CC)c1ccc(C(=O)C(=O)N2C3CCCC2C2c4c(cc(OC)cc4OC)CCN2C3=O)cc1` (centres undefined), 1 µM; with `COc1cc2c(c(OC)c1)C1C3CCCC(C(=O)N1CC2)N3S(=O)(=O)c1cccc(C)c1` (centres undefined), 0.104 µM.
With `COc1cc2c(c(OC)c1)C1C3CCCC(C(=O)N1CC2)N3S(=O)(=O)c1cccc(Br)c1` (centres undefined) the figure was 0.054 µM; with `COc1cc2c(c(OC)c1)C1C3CCCC(C(=O)N1CC2)N3C(=O)C(O)c1ccc(Cl)cc1` (centres undefined), 0.208 µM; with `COc1cc2c(c(OC)c1)C1C3CCCC(C(=O)N1CC2)N3C(=O)C(=O)c1ccc(OC)c(OC)c1` (centres undefined), 0.06 µM.
Under `COc1cc2c(c(OC)c1)C1C3CCCC(C(=O)N1CC2)N3C(=O)C(=O)c1ccccc1` (centres undefined) stands 0.1 µM; under `COc1cc2c(c(OC)c1)C1C3CCCC(C(=O)N1CC2)N3C(=O)C(=O)c1ccco1` (centres undefined), 0.279 µM; under `COc1cc2c(c(OC)c1)C1C3CCCC(C(=O)N1CC2)N3C(=O)C(=O)c1ccc(Cl)c(Cl)c1` (centres undefined), 0.034 µM.
With `COc1ccc2c(c1)CCN1C(=O)C3CCCC(C21)N3S(=O)(=O)Nc1cc(F)c(F)cc1F` (centres undefined), the Ki is 0.59 µM.
Compound `COc1cc(C(=O)C(=O)N2C3CCCC2C2c4cc(C)ccc4CCN2C3=O)cc(OC)c1OC` (centres undefined) gave a Ki of 0.085 µM.
With `COc1cc2c(c(OC)c1)C1C3CCCC(C(=O)N1CC2)N3C(=O)C(=O)c1ccc(Cl)cc1` (centres undefined) the figure was 0.072 µM; with `COc1cc2c(c(OC)c1)C1C3CCCC(C(=O)N1CC2)N3C(=O)C(=O)c1cccc(Cl)c1Cl` (centres undefined), 0.282 µM.
Under `COc1cc(C(=O)C(=O)N2C3CCCC2C2c4ccccc4CCN2C3=O)cc(OC)c1OC` (centres undefined) stands 0.217 µM; under `COc1ccc2c(c1)CCN1C(=O)C3CCCC(C21)N3C(=O)C(=O)c1cc(OC)c(OC)c(OC)c1` (centres undefined), 0.143 µM.
With `COc1cc2c(c(OC)c1)C1C3CCCC(C(=O)N1CC2)N3C(=O)C(=O)c1cc(OC)c(OC)c(OC)c1` (centres undefined) the figure was 0.069 µM; with `COc1cc2c(c(OC)c1)C1C3CCCC(C(=O)N1CC2)N3C(=O)N(c1ccccc1OC)c1ccccc1OC` (centres undefined), 0.357 µM; with `COc1cc2c(c(OC)c1)C1C3CCCC(C(=O)N1CC2)N3C(=O)Cc1ccc(Cl)cc1` (centres undefined), 3.1 µM.
`COc1cc(OC)cc(C(=O)C(=O)N2C3CCCC2C2c4c(cc(OC)cc4OC)CCN2C3=O)c1` (centres undefined) returned a Ki of 0.034 µM.
On to `COc1cc2c(c(OC)c1)C1C3CCCC(C(=O)N1CC2)N3S(=O)(=O)c1ccc(C)cc1` (centres undefined), for which the inhibitory constant (Ki) worked out at 0.084 µM.
Under `COc1ccc2c(c1)CCN1C(=O)C3CCCC(C21)N3S(=O)(=O)N1C[C@@H](C)O[C@@H](C)C1` (some centres undefined) stands 0.123 µM; under `COc1cc2c(c(OC)c1)C1C3CCCC(C(=O)N1CC2)N3C(=O)C(=O)c1cccs1` (centres undefined), 0.107 µM; under `COc1ccc2c(c1)CCN1C(=O)C3CCCC(C21)N3S(=O)(=O)Nc1ccc(OC)nc1` (centres undefined), 0.21 µM.
With `COc1ccc(C(=O)C(=O)N2C3CCCC2C2c4c(cc(OC)cc4OC)CCN2C3=O)cc1` (centres undefined) the figure was 0.131 µM; with `COc1ccc2c(c1)CCN1C(=O)C3CCCC(C21)N3S(=O)(=O)Nc1ccc(F)nc1` (centres undefined), 0.183 µM; with `COc1cc2c(c(OC)c1)C1C3CCCC(C(=O)N1CC2)N3C(=O)C(=O)c1ccccc1O` (centres undefined), 0.238 µM.
For the compound `COc1cc(C(=O)C(=O)N2C3CCCC2C2c4cc(F)ccc4CCN2C3=O)cc(OC)c1OC` (centres undefined), the Ki is 0.225 µM.
With `COc1cc2c(c(OC)c1)C1C3CCCC(C(=O)N1CC2)N3C(=O)C(=O)c1cc(Cl)ccc1Cl` (centres undefined) the figure was 0.153 µM.
With `COc1ccc2c(c1)CCN1C(=O)C3CCCC(C21)N3S(=O)(=O)Nc1ccc(F)c(F)c1` (centres undefined) the figure was 0.15 µM.
Under `COc1cccc2c1CCN1C(=O)C3CCCC(C21)N3C(=O)C(=O)c1cc(OC)c(OC)c(OC)c1` (centres undefined) stands 0.105 µM.
`COc1cc2c(c(OC)c1)C1C3CCCC(C(=O)N1CC2)N3C(=O)C(=O)c1ccccc1Cl` (centres undefined) showed a Ki of 0.583 µM.
Under `COc1cc2c(c(OC)c1)C1C3CCCC(C(=O)N1CC2)N3S(=O)(=O)c1ccc(Br)cc1` (centres undefined) stands 0.092 µM.
Under `COc1cc2c(c(OC)c1)C1C3CCCC(C(=O)N1CC2)N3C(=O)C(F)(F)c1cc(OC)c(OC)c(OC)c1` (centres undefined) stands 0.091 µM; under `COc1cc2c(c(OC)c1)C1C3CCCC(C(=O)N1CC2)N3C(=O)C(=O)c1cc(C(C)(C)C)c(O)c(C(C)(C)C)c1` (centres undefined), 20.8 µM; under `COc1cc2c(c(OC)c1)C1C3CCCC(C(=O)N1CC2)N3C(=O)C(=O)c1ccc(F)cc1` (centres undefined), 0.11 µM.
With `COc1cc2c(c(OC)c1)C1C3CCCC(C(=O)N1CC2)N3C(=O)C(=O)c1cccnc1` (centres undefined) the figure was 0.11 µM; with `COc1cc(C(=O)C(=O)N2C3CCCC2C2c4c(F)cccc4CCN2C3=O)cc(OC)c1OC` (centres undefined), 0.201 µM.
`COc1cc2c(c(OC)c1)C1C3CCCC(C(=O)N1CC2)N3S(=O)(=O)c1ccc(Nc2cc(OC)c(OC)c(OC)c2)cc1` (centres undefined) displayed an inhibitory constant (Ki) of 0.288 µM. This Ki and that of the compound before are within 1.5-fold of each other.
Compound `COc1cc(C(=O)C(=O)N2C3CCCC2C2c4ccc(Cl)cc4CCN2C3=O)cc(OC)c1OC` (centres undefined) returned a Ki of 0.171 µM.
In turn, `COc1ccc2c(c1)CCN1C(=O)C3CCCC(C21)N3S(=O)(=O)Nc1cc(F)c(F)c(F)c1` (centres undefined) showed a Ki of 0.236 µM.
Under `COc1cc2c(c(OC)c1)C1C3CCCC(C(=O)N1CC2)N3C(=O)N(c1ccc([N+](=O)[O-])cc1)c1ccc([N+](=O)[O-])cc1` (centres undefined) stands 0.772 µM; under `COc1ccc2c(c1)CCN1C(=O)C3CCCC(C21)N3S(=O)(=O)N1CCCCC1` (centres undefined), 0.36 µM; under `COc1ccc2c(c1)CCN1C(=O)C3CCCC(C21)N3S(=O)(=O)Nc1ccc(N2CCOCC2)nc1` (centres undefined), 0.591 µM.
With `COc1cc2c(c(OC)c1)C1C3CCCC(C(=O)N1CC2)N3C(=O)C(=O)c1cccc(Cl)c1` (centres undefined) the figure was 0.046 µM; with `COc1cc2c(c(OC)c1)C1C3CCCC(C(=O)N1CC2)N3C(=O)N(c1ccccc1)c1ccccc1` (centres undefined), 2.7 µM; with `COc1cc(C(=O)C(=O)N2C3CCCC2C2c4cccc(Cl)c4CCN2C3=O)cc(OC)c1OC` (centres undefined), 0.152 µM.
Under `COc1cc2c(c(OC)c1)C1C3CCCC(C(=O)N1CC2)N3C(=O)C(=O)c1ccc(Cl)cc1Cl` (centres undefined) stands 0.586 µM.
For `CCc1ccc(C(=O)C(=O)N2C3CCCC2C2c4c(cc(OC)cc4OC)CCN2C3=O)cc1` (centres undefined), affinity was put at a Ki of 0.123 µM.
With `COc1cc2c(c(OC)c1)C1C3CCCC(CN1CC2)N3C(=O)C(=O)c1cc(OC)c(OC)c(OC)c1` (centres undefined) the figure was 31.7 µM; with `COc1cc2c(c(OC)c1)C1C3CCCC(C(=O)N1CC2)N3C(=O)N(c1ccc(F)cc1F)c1ccc(F)cc1F` (centres undefined), 7 µM.
With `COc1cc2c(c(OC)c1)C1C3CCCC(C(=O)N1CC2)N3C(=O)C(=O)c1cc2ccccc2[nH]1` (centres undefined) the figure was 2.3 µM.
With `COc1cc2c(c(OC)c1)C1C3CCCC(C(=O)N1CC2)N3S(=O)(=O)c1ccc(C#N)cc1` (centres undefined) the figure was 0.082 µM; with `COc1cc2c(c(OC)c1)C1C3CCCC(C(=O)N1CC2)N3C(=O)C(=O)c1ccc(Br)cc1` (centres undefined), 0.071 µM.
Take `COc1ccc2c(c1)CCN1C(=O)C3CCCC(C21)N3S(=O)(=O)Nc1cc(OC)c(OC)c(OC)c1` (centres undefined): affinity was put at a Ki of 0.64 µM.
Under `COc1cc2c(c(OC)c1)C1C3CCCC(C(=O)N1CC2)N3S(=O)(=O)c1ccc(-c2ccc(Cl)c(Cl)c2)cc1` (centres undefined) stands 0.156 µM; under `COc1ccc2c(c1)CCN1C(=O)C3CCCC(C21)N3S(=O)(=O)Nc1ccc(Cl)nc1` (centres undefined), 0.36 µM.
On to `COc1cc2c(c(OC)c1)C1C3CCCC(C(=O)N1CC2)N3C(=O)N(c1ccccc1C)c1ccccc1C` (centres undefined), for which the inhibitory constant (Ki) was 0.33 µM. This Ki and that of the compound before are within 1.5-fold of each other.
Under `COc1cc(C(=O)C(=O)N2C3CCCC2C2c4cc(Cl)ccc4CCN2C3=O)cc(OC)c1OC` (centres undefined) stands 0.126 µM.

Source of the values: ChEMBL document CHEMBL1149428, “Design, synthesis, and biological activity of novel polycyclic aza-amide FKBP12 ligands” (J Med Chem, 2006).
